Structures are written as SMILES. A value given as a limit tells only on which side of the number the result lay.

`O=C1Nc2ccc(Cl)cc2/C1=N/NC(=O)c1ccncc1` [Compound 4, (Z)-N'-(5-Chloro-2-oxoindolin-3-ylidene)isonicotinohydrazide]: the melting point (in general, the temperature of the solid-liquid transition) is 345 to 348 °C. `O=C1Nc2ccc(F)cc2/C1=N/NC(=O)c1ccncc1` [Compound 5, (Z)-N'-(5-Fluoro-2-oxoindolin-3-ylidene)isonicotinohydrazide] came in with a melting point of 346 to 348 °C.

In turn, `Cc1ccc2c(c1)/C(=N/NC(=O)c1ccncc1)C(=O)N2` [Compound 6, (Z)-N'-(5-Methyl-2-oxoindolin-3-ylidene)isonicotinohydrazide] had a melting point of 319 to 322 °C. The figure for `O=C1Nc2ccc(OC(F)(F)F)cc2/C1=N/NC(=O)c1ccncc1` [Compound 7, (Z)-N'-(2-Oxo-5-(trifluoromethoxy)indolin-3-ylidene)isonicotinohydrazide] is 262 to 265 °C; for `O=C1Nc2ccc([N+](=O)[O-])cc2/C1=N/NC(=O)c1ccncc1` [Compound 8, (Z)-N'-(5-Nitro-2-oxoindolin-3-ylidene)isonicotinohydrazide] it is 350 to 353 °C. In the case of `O=C(N/N=C1\C(=O)N(c2ccccc2)c2ccccc21)c1ccncc1` [Compound 9, (Z)-N'-(2-Oxo-1-phenylindolin-3-ylidene)isonicotinohydrazide] it was 201 to 205 °C; in that of `O=C(N/N=C1\C(=O)N(Cc2ccccc2)c2ccc(Cl)cc21)c1ccncc1` [Compound 11, (Z)-N'-(1-Benzyl-5-chloro-2-oxoindolin-3-ylidene)isonicotinohydrazide], 167 to 171 °C; in that of `O=C(N/N=C1\C(=O)N(Cc2ccccc2)c2ccc(F)cc21)c1ccncc1` [Compound 12, (Z)-N'-(1-Benzyl-5-fluoro-2-oxoindolin-3-ylidene)isonicotinohydrazide], 188 to 192 °C. In the case of `Cc1ccc2c(c1)/C(=N/NC(=O)c1ccncc1)C(=O)N2Cc1ccccc1` [Compound 13, (Z)-N'-(1-Benzyl-5-methyl-2-oxoindolin-3-ylidene)isonicotinohydrazide] it was 159 to 162 °C. Compound `O=C1Nc2ccccc2/C1=N/NC(=O)c1cccnc1` [Compound 14, (Z)-N'-(2-Oxoindolin-3-ylidene)nicotinohydrazide] came in with a melting point of 254 to 256 °C.

Turning to `O=C1Nc2ccc(F)cc2/C1=N/NC(=O)c1ccco1` [Compound 15, (Z)-N'-(5-Fluoro-2-oxoindolin-3-ylidene)furan-2-carbhydrazide], the melting point lay within 310 to 312 °C. Compound `O=C1Nc2ccccc2/C1=N/NC(=O)c1ccc([N+](=O)[O-])o1` [Compound 16, (Z)-5-Nitro-N'-(2-Oxoindolin-3-ylidene)furan-2-carbohydrazide] showed a melting point of 309 to 311 °C. In the case of `O=C1Nc2ccc(Cl)cc2/C1=N/NC(=O)c1cc2ccccc2o1` [Compound 17, (Z)-N'-(5-Chloro-2-oxoindolin-3-ylidene)benzofuran-2-carbohydrazide] it was 335 to 338 °C.

The compound `Cc1ccc2c(c1)/C(=N/NC(=O)c1cc3ccccc3o1)C(=O)N2` [Compound 18, (Z)-N'-(5-Methyl-2-oxoindolin-3-ylidene)benzofuran-2-carbohydrazide] gave a melting point of 331 to 336 °C. The figure for `O=C1Nc2ccc([N+](=O)[O-])cc2/C1=N/NC(=O)c1cc2ccccc2o1` [Compound 19, (Z)-N'-(5-Nitro-2-oxoindolin-3-ylidene)benzofuran-2-carbohydrazide] is 367 to 369 °C; for `O=C(N/N=C1\C(=O)N(c2ccccc2)c2ccccc21)c1cc2ccccc2o1` [Compound 20, (Z)-N'-(2-Oxo-1-phenylindolin-3-ylidene)benzofuran-2-carbohydrazide] it is 235 to 238 °C.

As for `O=C1Nc2ccc(F)cc2/C1=N/NC(=O)c1cc2cc([N+](=O)[O-])ccc2o1` [Compound 21, (Z)-N'-(5-Fluoro-2-oxoindolin-3-ylidene)-5-nitrobenzofuran-2-carbhydrazide], the melting point was in the range of 357 to 359 °C. `O=C1/C(=N\NC(=O)C23CC4CC(CC(C4)C2)C3)c2ccccc2N1c1ccccc1` [Compound 22, (Z)-N'-(2-oxo-1-phenylindolin-3-ylidene)adamantane-1-carbohydrazide] yielded a melting point of 201 to 203 °C. In the case of `Cc1cccc(Nc2ccccc2C(=O)N/N=C2\C(=O)N(Cc3ccccc3)c3ccccc32)c1C` [Compound 23, (Z)-N'-(1-Benzyl-2-oxoindolin-3-ylidene)-2-(2,3-dimethylphenylamino)benzohydrazide], the melting point is 286 to 288 °C. In the case of `Cc1ccc2c(c1)/C(=N/NC(=O)c1ccccc1Nc1c(Cl)ccc(C)c1Cl)C(=O)N2` [Compound 24, (Z)-2-(2,6-Dichloro-3-methylphenylamino)-N'-(5-methyl-2-oxoindolin-3-ylidene)-benzohydrazide] it was 283 to 287 °C; in that of `O=C1Nc2ccc(OC(F)(F)F)cc2/C1=N/NC(=O)c1ccccc1Nc1cccc(C(F)(F)F)c1` [Compound 25, (Z)-N'-(2-Oxo-5-(trifluoromethoxy)indolin-3-ylidene)-2-(3-(trifluoromethyl)phenylamino)-benzo-hydrazide], 226 °C. For `CCn1cc(C(=O)N/N=C2\C(=O)Nc3ccc(F)cc32)c(=O)c2ccc(C)nc21` [Compound 26, (Z)-1-Ethyl-N'-(5-fluoro-2-oxoindolin-3-ylidene)-7-methyl-4-oxo-1,4-dihydro-1,8-naphthyridine-3-carbohydrazide], the melting point was greater than 360 °C.
